Values joined by “and” are separate entries in the source; they are usually repeats but may differ in a detail not shown here. Equal values may be shown once. “Also recorded” adds a separate entry of the source. Read-outs that look alike come from different tables or passages of the source.
Experiments:
[1] = biological target: T1, BmDHFR (Brugia malayi, UniProt A0A4E9FIQ4); design: method as in PMID 26669020; settings: computational prediction, cited from earlier work
[2] = biological target: T2, WbDHFR (Wuchereria bancrofti, UniProt J9F199); type: biochemical; settings: for inhibition of WbDHFR (in words): pH 6.0, 25°C
Protocol: (§1) Compounds (-)-epicatechin, (-)-epicatechin gallate, and vitexin were tested as inhibitors of WbDHFR and BmDHFR. The compounds (-)-epicatechin and (-)-epicatechin gallate were synthesized as described previously. […] Disappearance of DHF and NADPH was observed by measuring absorbance at 340 nm to measure the DHFR activity in a SpectraMax M3 microplate reader. […] All experiments were completed in triplicate.

[3] = biological target: T1, BmDHFR; test: biochemical; type: biochemical; settings: for inhibition of BmDHFR (in words): pH 6.0, 25°C
Protocol: as §1
A linear equation was fitted to the data at each substrate concentration. […] The KI values for BmDHFR in Table 1 were obtained using the Cheng-Prusoff Equation [18]. […] Inhibitor structures are shown in supporting information (S2 Fig).

[4] = biological target: T2, WbDHFR; test: Michaelis-Menten kinetics of WbDHFR, KM for DHF; type: biochemical; settings: pH 6.0, 25°C, 100 μM NADPH, MTEN buffer; ± S.D.
Protocol: To characterize DHFR enzymatic activity, we measured absorbance at 340 nm to follow the disappearance of DHF substrate and NADPH cofactor over time. The KM of WbDHFR for DHF was determined over a concentration range of 3.8 to 195 μM DHF, at 25°C, in MTEN buffer (50 mM 2-morpholinoethane sulphonic acid (MES), 25 mM Tris, 25 mM ethanolamine, 100 mM NaCl, and 1mM DTT) at pH 6.0. Initial velocity was plotted as a function of DHF concentration using KaleidaGraph and the Michaelis-Menten equation was fitted to the data. Catalytic activities of WbDHFR and BmDHFR were determined at various pH values (5.5–9.0) in MTEN buffer. The MTEN buffer used for all the reported assays has essentially a constant ionic strength at 0.15 over the pH range for which pH values were measured. Initial velocity was plotted as a function of pH using Excel.
Fig 2 Representative Michaelis-Menten curve. The conditions in the experimental wells (200 μL) were 100 μM NADPH, 12.4 nM WbDHFR in 1 X MTEN buffer at pH 6.0 with DHF concentrations ranging from 0 to 195 μM. The Michaelis-Menten equation was fitted to the data using KaleidaGraph. The Michaelis-Menten constant for DHF was determined by averaging values from fitting three separate data sets and found to be 3.7 ± 2.0 μM (S.D.).

[5] = biological target: T1, BmDHFR; settings: read-out: KM previously determined for BmDHFR; cited from earlier work
[6] = biological target: T1, BmDHFR; design: method as in PMID 27544923; settings: read-out: IC50 BmDHFR found previously; cited from earlier work
[7] = read-out: predicted KI against BmDHFR
[8] = pH 6.0, 100 μM NADPH, 50 μM DHF, 40 nM BmDHFR, average of triplicates ± S.D., read-out: IC50 BmDHFR
[9] = IC50 BmDHFR, pH 6.0, 100 μM NADPH, 50 μM DHF, 40 nM BmDHFR, average of triplicates ± S.D.
[10] = IC50 against BmDHFR Average, average of three trials
[11] = IC50 against BmDHFR Trial 1, individual trial
[12] = IC50 against BmDHFR Trial 2, individual trial
[13] = IC50 against BmDHFR Trial 3, individual trial
[14] = average of three trials, read-out: IC50 against BmDHFR Average
[15] = individual trial, read-out: IC50 against BmDHFR Trial 1
[16] = individual trial, read-out: IC50 against BmDHFR Trial 2
[17] = obtained using the Cheng-Prusoff Equation, upper limit for tight-binding inhibitors, read-out: KI BmDHFR

Oc1cc(O)c2c(c1)O[C@H](c1ccc(O)c(O)c1)[C@H](O)C2 [(-)-Epicatechin, (-)-epicatechin]
Ki [1, 7]: 76 µM
inhibition of WbDHFR (in words) [2]: did not observe inhibition; also recorded: neither compound showed any inhibitory activity
IC50 [3, 8]: > 2500 µM
inhibition of BmDHFR (in words) [3]: did not observe inhibition; also recorded: neither compound showed any inhibitory activity

Nc1nc(N)c2nc(CNc3ccc(C(=O)N[C@@H](CCC(=O)O)C(=O)O)cc3)cnc2n1 [Aminopterin, aminopterin]
inhibition of WbDHFR (in words) [2]: inhibit
Ki [3]: < 0.0017 µM
IC50 [3, 9]: 0.0075 ± 0.0003 µM
IC50 [3, 10]: 0.00755 µM
IC50 [3, 11]: 0.0072 µM
IC50 [3, 12]: 0.0076 µM
IC50 [3, 13]: 0.00784 µM

Nc1nc(=O)c2c([nH]1)NCC(CNc1ccc(C(=O)N[C@@H](CCC(=O)O)C(=O)O)cc1)=N2 [DHF, dihydrofolate]
Km [4]: 3.7 ± 2 µM
Km [5]: 14.7 ± 3.6 µM

CN(Cc1cnc2nc(N)nc(N)c2n1)c1ccc(C(=O)N[C@@H](CCC(=O)O)C(=O)O)cc1 [Methotrexate, methotrexate]
inhibition of WbDHFR (in words) [2]: inhibit

CCc1nc(N)nc(N)c1-c1ccc(Cl)cc1 [Pyrimethamine, pyrimethamine]
inhibition of WbDHFR (in words) [2]: inhibit
IC50 [3, 14]: 16 µM
IC50 [3, 15]: 16.4 µM
IC50 [3, 16]: 21.8 µM
IC50 ([3]; individual trial, read-out: IC50 against BmDHFR Trial 3): 8.7 µM
Ki [3, 17]: 3.6 ± 1.5 µM
IC50 [3, 8]: 15.6 µM and 16 µM
IC50 [6]: 109 ± 34 µM

Cc1nc2ccc(CN(C)c3ccc(C(=O)N[C@@H](CCC(=O)O)C(=O)O)s3)cc2c(=O)[nH]1 [Raltitrexed, raltitrexed]
inhibition of WbDHFR (in words) [2]: inhibit
IC50 [3, 14]: 7.3 µM
IC50 [3, 15]: 7.1 µM
IC50 [3, 16]: 6.83 µM
Ki [3, 17]: 1.6 ± 0.04 µM
IC50 [3, 8]: 7.3 ± 0.2 µM

COc1cc(Cc2cnc(N)nc2N)cc(OC)c1OC [Trimethoprim, trimethoprim]
Ki [1, 7]: 11 µM
inhibition of WbDHFR (in words) [2]: inhibit
Ki [3]: 15 ± 3 µM
IC50 [3, 9]: 65 ± 13 µM
IC50 [3, 10]: 64.7 µM
IC50 [3, 11]: 80.4 µM
IC50 [3, 12]: 61.1 µM
IC50 [3, 13]: 48.9 µM

O=c1cc(-c2ccc(O)cc2)oc2c([C@@H]3O[C@H](CO)[C@@H](O)[C@H](O)[C@H]3O)c(O)cc(O)c12 [Vitexin, vitexin]
Ki ([1]; read-out: predicted inhibitor of BmDHFR): 0.465 µM
inhibition of WbDHFR (in words) [2]: did not observe inhibition
IC50 [3, 9]: > 240 µM
inhibition of BmDHFR (in words) [3]: did not observe any inhibition

(-)-epicatechin gallate
Ki [1, 7]: 48 µM
IC50 ([2]; pH 6.0, 100 μM NADPH, 50 μM DHF, 12.1 nM WbDHFR, average of triplicates ± S.D., read-out: IC50 WbDHFR): > 1000 µM
inhibition of WbDHFR (in words) [2]: did not observe inhibition; also recorded: neither compound showed any inhibitory activity
IC50 [3, 8]: > 1000 µM
inhibition of BmDHFR (in words) [3]: did not observe inhibition; also recorded: neither compound showed any inhibitory activity

Source: publication PMC5963757, “Expression, purification, and inhibition profile of dihydrofolate reductase from the filarial nematode Wuchereria bancrofti” (PLoS ONE, 2018)
